Results as given in PubChem BioAssay (NCI).
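Method: 48-hour compound exposure of cells in 96-well plates, five concentrations, linear interpolation of endpoints. GI50 marks 50% less growth. TGI denotes the concentration required for complete inhibition of growth.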

Experiments:
Assay in all cases: DTP human tumour cell line panel, 48 h
A498 renal = tested on: A498 renal
K-562 leukemia = tested on: K-562 leukemia
UACC-62 melanoma = tested on: UACC-62 melanoma
SN12C renal = tested on: SN12C renal
UACC-257 melanoma = tested on: UACC-257 melanoma
786-0 renal = tested on: 786-0 renal
EKVX NSCLC = tested on: EKVX NSCLC
NCI-H522 lung = tested on: NCI-H522 lung
OVCAR-4 ovarian = tested on: OVCAR-4 ovarian
U251 CNS = tested on: U251 CNS

| Structure (SMILES) | TGI (A498 renal) | TGI (K-562 leukemia) | TGI (UACC-62 melanoma) | TGI (SN12C renal) | TGI (UACC-257 melanoma) | TGI (786-0 renal) | TGI (EKVX NSCLC) | TGI (NCI-H522 lung) | TGI (OVCAR-4 ovarian) | TGI (U251 CNS) | GI50 (A498 renal) | GI50 (K-562 leukemia) | GI50 (UACC-62 melanoma) | GI50 (SN12C renal) | GI50 (UACC-257 melanoma) | GI50 (786-0 renal) | GI50 (EKVX NSCLC) | GI50 (NCI-H522 lung) | GI50 (OVCAR-4 ovarian) | GI50 (U251 CNS) |
| --- | --- | --- | --- | --- | --- | --- | --- | --- | --- | --- | --- | --- | --- | --- | --- | --- | --- | --- | --- | --- |
| CN(C=O)/C=C/c1cc(O)ccc1O | > 100 µM | 62.1 µM | 46.9 µM | 44.3 µM | 52.7 µM | 33.7 µM | 63.8 µM | 9.37 µM | 33.6 µM | > 69.7 µM | – | – | – | – | – | – | – | – | – | – |
| O=c1[nH]c2ccccc2n1-c1n[nH]c2ccccc12 | > 100 µM | > 100 µM | 96.7 µM | > 100 µM | > 100 µM | > 100 µM | > 100 µM | 48.7 µM | > 100 µM | > 100 µM | 51.3 µM | 31.3 µM | 33.6 µM | 37.2 µM | 42.1 µM | 46.6 µM | 29.7 µM | 19.7 µM | 41.3 µM | 31.3 µM |
| Cc1cc(Cl)ccc1Nc1nc(C(F)(F)F)ccc1C(=O)N1CCN(c2cccc(Cl)c2)CC1 | > 100 µM | > 100 µM | > 100 µM | > 100 µM | > 100 µM | > 100 µM | > 100 µM | > 100 µM | > 100 µM | > 100 µM | 37.1 µM | 19.7 µM | > 100 µM | > 100 µM | > 100 µM | > 100 µM | > 100 µM | > 100 µM | 30 µM | > 100 µM |
